Values of other authors, collected in patent US20240374540A1, “FORMULATIONS FOR THE TREATMENT OF OCULAR SURFACE DISEASES AND RELATED METHODS” (priority 2016, published 2024).

Test system: AQP5
Conditions: human airway epithelial cells (A459 cells)

## Nc1c(Br)cc(Br)cc1CN[C@H]1CC[C@H](O)CC1 [ambroxol, Ambroxol]
  expression of AQP5: stimulate the expression of AQP5
